Laboratory results reported in PubChem BioAssay AID1963963 (Molecular Pharmacology Branch, DTP, NCI, 2024).
Each block holds one molecule with its values, some of them ahead of it.

System: 958667-338-R-J2-PDC tumor spheroids viability
Test: Anticancer human tumor 958667-338-R-J2-PDC patient-derived colon adenocarcinoma cell line growth inhibition [PI3K]
Settings: spheroids with HUVEC and MSC; for viability, T/C: stronger effect = lower value
Outline: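 Three cell types, namely tumor cells, endothelial cells and mesenchymal stem cells, formed each spheroid. Combinations with four PI3K inhibitors were screened at clinically achievable concentrations decreasing by half-log, and spheroid viability was recorded.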

[1] = curve of first compound, second compound 0.00316 µM
[2] = curve of first compound, second compound 0.01 µM
[3] = curve of first compound, second compound 0.0316 µM
[4] = curve of first compound, second compound 0.1 µM
[5] = curve of first compound, second compound 0.316 µM
[6] = curve of first compound, second compound 1 µM
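Further: spheroids exposed to compounds for seven days before readout.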

IC50 [1]: 0.255 µM
IC50 [2]: 0.134 µM
IC50 [3]: 0.038 µM
IC50 [4]: 0.0206 µM
IC50 [5]: < 0.00949 µM
IC50 [6]: < 0.00949 µM
Compound: Cn1cnc2c(F)c(Nc3ccc(Br)cc3Cl)c(C(=O)NOCCO)cc21 + COc1c(OCCCN2CCOCC2)ccc2c3n(c(=NC(=O)c4cnc(N)nc4)nc12)CCN3
viability, T/C (second compound 0.00316 µM, first compound 0.00949 µM): 81.6%
viability, T/C (second compound 0.00316 µM, first compound 0.03 µM): 81.9%
viability, T/C (second compound 0.00316 µM, first compound 0.0949 µM): 75.2%
viability, T/C (second compound 0.00316 µM, first compound 0.3 µM): 44.6%
viability, T/C (second compound 0.00316 µM, first compound 0.949 µM): 26.7%
viability, T/C (second compound 0.00316 µM, first compound 3 µM): 17.3%
viability, T/C (second compound 0.01 µM, first compound 0.00949 µM): 87.8%
viability, T/C (second compound 0.01 µM, first compound 0.03 µM): 65.3%
viability, T/C (second compound 0.01 µM, first compound 0.0949 µM): 62.1%
viability, T/C (second compound 0.01 µM, first compound 0.3 µM): 34.7%
viability, T/C (second compound 0.01 µM, first compound 0.949 µM): 24.9%
viability, T/C (second compound 0.01 µM, first compound 3 µM): 11.6%
viability, T/C (second compound 0.0316 µM, first compound 0.00949 µM): 71.6%
viability, T/C (second compound 0.0316 µM, first compound 0.03 µM): 46.2%
viability, T/C (second compound 0.0316 µM, first compound 0.0949 µM): 40.4%
viability, T/C (second compound 0.0316 µM, first compound 0.3 µM): 28%
viability, T/C (second compound 0.0316 µM, first compound 0.949 µM): 17.4%
viability, T/C (second compound 0.0316 µM, first compound 3 µM): 6.46%
viability, T/C (second compound 0.1 µM, first compound 0.00949 µM): 67.8%
viability, T/C (second compound 0.1 µM, first compound 0.03 µM): 40.9%
viability, T/C (second compound 0.1 µM, first compound 0.0949 µM): 23.8%
viability, T/C (second compound 0.1 µM, first compound 0.3 µM): 16.4%
viability, T/C (second compound 0.1 µM, first compound 0.949 µM): 8.73%
viability, T/C (second compound 0.1 µM, first compound 3 µM): 2.61%
viability, T/C (second compound 0.316 µM, first compound 0.00949 µM): 34.6%
viability, T/C (second compound 0.316 µM, first compound 0.03 µM): 25.5%
viability, T/C (second compound 0.316 µM, first compound 0.0949 µM): 13.7%
viability, T/C (second compound 0.316 µM, first compound 0.3 µM): 6.91%
viability, T/C (second compound 0.316 µM, first compound 0.949 µM): 3.48%
viability, T/C (second compound 0.316 µM, first compound 3 µM): 1.27%
viability, T/C (second compound 1 µM, first compound 0.00949 µM): 13.5%
viability, T/C (second compound 1 µM, first compound 0.03 µM): 10.8%
viability, T/C (second compound 1 µM, first compound 0.0949 µM): 5.1%
viability, T/C (second compound 1 µM, first compound 0.3 µM): 3.51%
viability, T/C (second compound 1 µM, first compound 0.949 µM): 2.89%
viability, T/C (second compound 1 µM, first compound 3 µM): 1%

IC50 (curve of compound): 80.6 nM [middle of 4 runs]
Compound: CC(C)n1nc(-c2ccc3oc(N)nc3c2)c2c(N)ncnc21
viability, T/C (compound 0.000316 µM): 93.8% [middle of 4 runs]
viability, T/C (compound 0.001 µM): 97.1% [middle of 4 runs]
viability, T/C (compound 0.01 µM): 94.7% [middle of 4 runs]
viability, T/C (compound 0.0316 µM): 72.6% [middle of 4 runs]
viability, T/C (compound 0.1 µM): 44.5% [middle of 4 runs]

IC50 [1]: > 10 µM
IC50 [2]: 9.01 µM
IC50 [3]: 7.32 µM
IC50 [4]: 6.41 µM
IC50 [5]: 4.7 µM
IC50 [6]: > 10 µM
Compound: CC1(C)CCC(CN2CCN(c3ccc(C(=O)NS(=O)(=O)c4ccc(NCC5CCOCC5)c([N+](=O)[O-])c4)c(Oc4cnc5[nH]ccc5c4)c3)CC2)=C(c2ccc(Cl)cc2)C1 + CC(Nc1ccc2c(c1)OCCn1cc(N3C(=O)OCC3C(F)F)nc1-2)C(N)=O
viability, T/C (second compound 0.00316 µM, first compound 0.0316 µM): 92.8%
viability, T/C (second compound 0.00316 µM, first compound 0.1 µM): 116%
viability, T/C (second compound 0.00316 µM, first compound 0.316 µM): 95.6%
viability, T/C (second compound 0.00316 µM, first compound 1 µM): 111%
viability, T/C (second compound 0.00316 µM, first compound 3.16 µM): 102%
viability, T/C (second compound 0.00316 µM, first compound 10 µM): 69.5%
viability, T/C (second compound 0.01 µM, first compound 0.0316 µM): 91.6%
viability, T/C (second compound 0.01 µM, first compound 0.1 µM): 89.3%
viability, T/C (second compound 0.01 µM, first compound 0.316 µM): 91.2%
viability, T/C (second compound 0.01 µM, first compound 1 µM): 87.3%
viability, T/C (second compound 0.01 µM, first compound 3.16 µM): 86.3%
viability, T/C (second compound 0.01 µM, first compound 10 µM): 46.4%
viability, T/C (second compound 0.0316 µM, first compound 0.0316 µM): 84.2%
viability, T/C (second compound 0.0316 µM, first compound 0.1 µM): 118%
viability, T/C (second compound 0.0316 µM, first compound 0.316 µM): 86%
viability, T/C (second compound 0.0316 µM, first compound 1 µM): 97.9%
viability, T/C (second compound 0.0316 µM, first compound 3.16 µM): 86.9%
viability, T/C (second compound 0.0316 µM, first compound 10 µM): 36.1%
viability, T/C (second compound 0.1 µM, first compound 0.0316 µM): 72%
viability, T/C (second compound 0.1 µM, first compound 0.1 µM): 79.7%
viability, T/C (second compound 0.1 µM, first compound 0.316 µM): 74.3%
viability, T/C (second compound 0.1 µM, first compound 1 µM): 77.4%
viability, T/C (second compound 0.1 µM, first compound 3.16 µM): 96.6%
viability, T/C (second compound 0.1 µM, first compound 10 µM): 31%
viability, T/C (second compound 0.316 µM, first compound 0.0316 µM): 71.7%
viability, T/C (second compound 0.316 µM, first compound 0.1 µM): 59.5%
viability, T/C (second compound 0.316 µM, first compound 0.316 µM): 67.5%
viability, T/C (second compound 0.316 µM, first compound 1 µM): 71.8%
viability, T/C (second compound 0.316 µM, first compound 3.16 µM): 70.1%
viability, T/C (second compound 0.316 µM, first compound 10 µM): 15.5%
viability, T/C (second compound 1 µM, first compound 0.0316 µM): 49%
viability, T/C (second compound 1 µM, first compound 0.1 µM): 60.7%
viability, T/C (second compound 1 µM, first compound 0.316 µM): 63%
viability, T/C (second compound 1 µM, first compound 1 µM): 63.4%
viability, T/C (second compound 1 µM, first compound 3.16 µM): 60.7%
viability, T/C (second compound 1 µM, first compound 10 µM): 35.5%

IC50 (compound alone, run of 06/13/2023): > 10 µM
Compound: CC(Nc1ncnc2nc[nH]c12)c1cc2cccc(Cl)c2c(=O)n1-c1ccccc1 (centres undefined)
viability, T/C (compound 0.1 µM): 93.8% [middle of 8 runs]
viability, T/C (compound 1 µM): 90.8% [middle of 8 runs]
viability, T/C (compound 10 µM): 92.9% [middle of 8 runs]
